From US20100240642A1, “1H-Indole-2-Carboxylic Acid Derivatives Useful As PPAR Modulators” (SMITHKLINE BEECHAM CORPORATION, priority 2006, published 2010)

Target: T1, hPPARγ receptor (Homo sapiens, UniProt P37231)
T1 construct: expressed in transfected cells; host or cells: CV-1 (African Green Monkey kidney, ATCC CCL-70)
T1 sequence (P37231 172-475 isoform P37231-2): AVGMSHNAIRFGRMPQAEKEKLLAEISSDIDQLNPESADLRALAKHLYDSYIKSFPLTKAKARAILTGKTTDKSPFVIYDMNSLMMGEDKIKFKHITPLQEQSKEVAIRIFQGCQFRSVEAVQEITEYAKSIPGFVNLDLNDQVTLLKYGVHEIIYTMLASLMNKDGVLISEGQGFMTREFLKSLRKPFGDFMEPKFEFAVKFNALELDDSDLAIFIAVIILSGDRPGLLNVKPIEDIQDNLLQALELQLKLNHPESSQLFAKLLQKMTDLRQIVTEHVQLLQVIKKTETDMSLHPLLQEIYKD
Experiment: PPARγ Cell-based luciferase assay
Details: CV-1, read-out: agonism of the hPPARγ receptor (activation relative to full agonist rosiglitazone)
Source text: Plasmids—PCR primers containing Kpnl and BamHI restriction sites were used to amplify PPARγ ligand binding domain (LBD) fragment (172-475) from a full-length human clone. The LBD fragment was ligated into the multiple cloning site of pFA-CMV (Stratagene). The resulting construct (pFA-CMV-GAL4-hPPARγLBD carried a fusion of the LBD with the yeast-derived GAL4 DNA-binding domain under the control of the CMV immediate early promoter. Reporter construct UAStkLuc carries a single 17 bp (CGGAGTACTGTCCTCCG) upstream activating sequence (UAS), the tk minimal promoter, and the firefly luciferase gene. The integrity of each construct was confirmed by diagnostic restriction digestion and by sequencing. Plasmid DNA was prepared using Qiagen Maxi-Prep kits.
PPARγ Cell-based luciferase assay—African Green Monkey kidney cell line CV-1 (ATCC CCL-70) was maintained in Dulbecco's Modified Eagle's Medium (D-MEM) containing 10% fetal bovine serum, 2 mM glutamine, and 1% penicillin/streptomycin (pen/strep). In preparation for luciferase assays, CV-1 cells were grown in charcoal-stripped cell medium containing D-MEM/F-12 medium supplemented with 5% or 3% dextran-treated/charcoal-stripped (CS) fetal bovine serum, 2 mM glutamine, with or without 1% pen/strep, as described below. CS fetal bovine serum was purchased from Hyclone; all other cell culture reagents were from Gibco.
The luciferase protocol is a multi-day procedure. On day 1, confluent cells in maintenance medium were subcultured 1:10 into T-175 cm^2 flasks containing 50 mL of 3% CS medium with pen/strep. These flasks were allowed to incubate at 5% CO2 and 37° C. for 72 hours.
Cells were harvested by trypsinization and then transfected using FuGENE (Roche) according to the manufacturer's specifications. Briefly, each transfection contained 0.55 μg pFA_CMV_GAL4_hPPARγ_LBD plasmid, 10.9 μg UAStkLUC, and 24 μg pBluescript (carrier DNA). Plasmid DNA was mixed with FuGENE in OptiMEM-1 medium and incubated for 30 min at room temperature. During this incubation, cells were harvested into 3% CS medium without pen-strep and dispensed at 14 million cells per T-175 cm^2 flask. Transfection mixes were added to the flasks and incubated overnight at 5% CO2 and 37° C.
Transfected cells were added to 384-well plates containing pharmacological agents. Rosiglitazone standard was reconstituted in DMSO at 1 mM. For 11-point dose-response experiments, the compounds were 3-fold serially diluted in DMSO and then stamped to 384-well assay plates (NUNC, catalog #164564) at 0.5 μL/well using a Beckman FX. DMSO and agonist control compound Rosiglitazone (1 mM) were each stamped at 0.5 μL/well to columns 23 and 24, respectively, of the 384-well plates. Transfected cells were harvested in 5% CS medium with pen/strep and dispensed at 10,000 cells/well (50 μL) onto the prepared 384-well compound plates using a Titertek Multidrop. Following overnight incubation at 5% CO2 and 37° C., Steady-Glo reagent (Promega) was added to the assay plates using a Multidrop. Plates were incubated for 10 min to ensure complete cell lysis and read in a ViewLux (PerkinElmer). […] Partial agonism is defined here as 20-80% activation (relative to full agonist rosiglitazone) at concentrations of 10^−6 M or less.

SMILES | Emax [%]
COCCOc1cc(Cn2c(C(=O)O)c(-c3ccc(C(C)(C)C)cc3)c3ccccc32)cc(OC(=O)N(C)C)c1 [Example 49, 1-[(3-{[(dimethylamino)carbonyl]oxy}-5-{[2-(methyloxy)ethyl]oxy}phenyl)methyl]-3-[4-(1,1-dimethylethyl)phenyl]-1H-indole-2-carboxylic acid] | 20 to 80

Same assay, conditions: CV-1 cells transfected with GAL4-hPPARγ LBD and UAStkLuc; at concentrations of 10^−6 M or less; read-out: agonism of the hPPARγ receptor (activation relative to full agonist rosiglitazone)

SMILES | Emax [%]
COCCOc1cc(Cn2c(C(=O)O)c(-c3cc4ccccc4o3)c3ccccc32)cc(OCCOC)c1 [Example 60, 3-(1-benzofuran-2-yl)-1-[(3,5-bis{[2-(methyloxy)ethyl]oxy}phenyl)methyl]-1H-indole-2-carboxylic acid] | 20 to 80
COCCOC(=O)N1CCN(c2cccc(Cn3c(C(=O)O)c(-c4ccc(C(C)(C)C)cc4)c4ccccc43)c2)CC1 [Example 48, 3-[4-(1,1-dimethylethyl)phenyl]-1-({3-[4-({[2-(methyloxy)ethyl]oxy}carbonyl)-1-piperazinyl]phenyl}methyl)-1H-indole-2-carboxylic acid] | 20 to 80
COCCOc1cc(Cn2c(C(=O)O)c(-c3ccc(C(C)(C)C)cc3)c3ccccc32)cc(C(F)(F)F)c1 [Example 64, 3-[4-(1,1-dimethylethyl)phenyl]-1-{[3-{[2-(methyloxy)ethyl]oxy}-5-(trifluoromethyl)phenyl]methyl}-1H-indole-2-carboxylic acid] | 20 to 80
CC(C)(C)c1ccc(-c2c(C(=O)O)n(Cc3cc(C(F)(F)F)cc(C(F)(F)F)c3)c3ccccc23)cc1 [Example 63, 1-{[3,5-bis(trifluoromethyl)phenyl]methyl}-3-[4-(1,1-dimethylethyl)phenyl]-1H-indole-2-carboxylic acid] | 20 to 80
COC(=O)N1CCN(c2cccc(Cn3c(C(=O)O)c(-c4ccc(C(C)(C)C)cc4)c4ccccc43)c2)CC1 [Example 36, 3-[4-(1,1-dimethylethyl)phenyl]-1-[(3-{4-[(methyloxy)carbonyl]-1-piperazinyl}phenyl)methyl]-1H-indole-2-carboxylic acid] | 20 to 80
COCCOc1cc(Cn2c(C(=O)O)c(-c3ccc(C(C)(C)C)cc3)c3ccccc32)cc(OC(=O)N2CCOCC2)c1 [Example 52, 3-[4-(1,1-dimethylethyl)phenyl]-1-({3-{[2-(methyloxy)ethyl]oxy}-5-[(4-morpholinylcarbonyl)oxy]phenyl}methyl)-1H-indole-2-carboxylic acid] | 20 to 80
COc1cc(Cn2c(C(=O)O)c(-c3ccc(C(C)(C)C)cc3)c3ccccc32)cc(OCC2CC2)c1 [Example 4, 1-{[3-[(cyclopropylmethyl)oxy]-5-(methyloxy)phenyl]methyl}-3-[4-(1,1-dimethylethyl)phenyl]-1H-indole-2-carboxylic acid] | 20 to 80
Cc1ccc(-c2ccc(OC(C)(C)C(=O)O)cc2)cc1Cn1c(C(=O)O)c(-c2ccc(C(C)(C)C)cc2)c2ccccc21 [Example 12, 1-({4′-[(1-carboxy-1-methylethyl)oxy]-4-methyl-3-biphenylyl}methyl)-3-[4-(1,1-dimethylethyl)phenyl]-1H-indole-2-carboxylic acid] | 20 to 80
O=C(O)c1c(Cc2cccc(C(F)(F)F)c2)c2ccccc2n1Cc1cc(OCCn2cccc2)cc(OCC2CC2)c1 [Example 54, 1-[(3-[(cyclopropylmethyl)oxy]-5-{[2-(1H-pyrrol-1-yl)ethyl]oxy}phenyl)methyl]-3-{[3-(trifluoromethyl)phenyl]methyl}-1H-indole-2-carboxylic acid] | 20 to 80
Cc1ccc(-c2ccc(O)cc2)cc1Cn1c(C(=O)O)c(-c2ccc(C(C)(C)C)cc2)c2ccccc21 [Example 10, 3-[4-(1,1-dimethylethyl)phenyl]-1-[(4′-hydroxy-4-methyl-3-biphenylyl)methyl]-1H-indole-2-carboxylic acid] | 20 to 80
CC(C)(C)OC(=O)NS(=O)(=O)N1CCN(c2cccc(Cn3c(C(=O)O)c(-c4ccc(C(C)(C)C)cc4)c4ccccc43)c2)CC1 [Example 38, 1-[(3-{4-[({[(1,1-dimethylethyl)oxy]carbonyl}amino)sulfonyl]-1-piperazinyl}phenyl)methyl]-3-[4-(1,1-dimethylethyl)phenyl]-1H-indole-2-carboxylic acid] | 20 to 80
CC(C)(C)c1ccc(-c2c(C(=O)O)n(Cc3cc(OCC4CC4)cc(OCC4CC4)c3)c3ccccc23)cc1 [Example 5, 1-({3,5-bis[(cyclopropylmethyl)oxy]phenyl}methyl)-3-[4-(1,1-dimethylethyl)phenyl]-1H-indole-2-carboxylic acid] | 20 to 80
COc1ccc(-c2c(C(=O)O)n(Cc3cccc(-c4ccc(O)cc4)c3)c3ccccc23)cn1 [Example 16, 1-[(4′-hydroxy-3-biphenylyl)methyl]-3-[6-(methyloxy)-3-pyridinyl]-1H-indole-2-carboxylic acid] | 20 to 80
COCCOc1cc(Cn2c(C(=O)O)c(-c3ccc(C(C)(C)C)cc3)c3ccccc32)cc(-c2ccc(C(=O)O)cc2)c1 [Example 20] | 20 to 80
CC(C)(C)c1ccc(-c2c(C(=O)O)n(Cc3cc(OCc4ccccc4)cc(OCC4CC4)c3)c3ccccc23)cc1 [Example 1, 1-({3-[(cyclopropylmethyl)oxy]-5-[(phenylmethyl)oxy]phenyl}methyl)-3-[4-(1,1-dimethylethyl)phenyl]-1H-indole-2-carboxylic acid] | 20 to 80
COCCOc1cc(Cn2c(C(=O)O)c(Cc3cccc(C(F)(F)F)c3)c3ccccc32)cc(OCC2CC2)c1 [Example 56, 1-[(3-[(cyclopropylmethyl)oxy]-5-{[2-(methyloxy)ethyl]oxy}phenyl)methyl]-3-{[3-(trifluoromethyl)phenyl]methyl}-1H-indole-2-carboxylic acid] | 20 to 80
COc1ccc(-c2ccc(C)c(Cn3c(C(=O)O)c(-c4ccc(C(C)(C)C)cc4)c4ccccc43)c2)cc1 [Example 13, 3-[4-(1,1-dimethylethyl)phenyl]-1-{[4-methyl-4′-(methyloxy)-3-biphenylyl]methyl}-1H-indole-2-carboxylic acid] | 20 to 80
COCCOc1cc(Cn2c(C(=O)O)c(-c3ccc(C(C)(C)C)cc3)c3ccccc32)cc(OCCOC)c1 [Example 66, 1-[(3,5-bis{[2-(methyloxy)ethyl]oxy}phenyl)methyl]-3-[4-(1,1-dimethylethyl)phenyl]-1H-indole-2-carboxylic acid] | 20 to 80
CC(C)(C)c1ccc(-c2c(C(=O)O)n(Cc3cccc(-c4ccc(O)cc4)c3)c3ccccc23)cc1 [Example 9, 3-[4-(1,1-dimethylethyl)phenyl]-1-[(4′-hydroxy-3-biphenylyl)methyl]-1H-indole-2-carboxylic acid] | 20 to 80
CC(C)(C)c1ccc(-c2c(C(=O)O)n(Cc3cccc(N4CCN(C(N)=O)CC4)c3)c3ccccc23)cc1 [Example 37, 1-({3-[4-(aminocarbonyl)-1-piperazinyl]phenyl}methyl)-3-[4-(1,1-dimethylethyl)phenyl]-1H-indole-2-carboxylic acid] | 20 to 80
COCCOCCCOc1cc(Cn2c(C(=O)O)c(Cc3cccc(C(F)(F)F)c3)c3ccccc32)cc(OCC2CC2)c1 [Example 55, 1-({3-[(cyclopropylmethyl)oxy]-5-[(3-{[2-(methyloxy)ethyl]oxy}propyl)oxy]phenyl}methyl)-3-{[3-(trifluoromethyl)phenyl]methyl}-1H-indole-2-carboxylic acid] | 20 to 80
